Row | melting point [°C] | SMILES
1 | 148 to 149 | NCc1cccc(-n2cnc3cnc4ccc(Cl)cc4c32)c1
2 | 196 to 200 | Nc1ccc2cccc(Oc3cc(-c4ccc(C(F)(F)F)cc4)ccn3)c2n1
3 | 252 | O=C(Nc1ccc(S(=O)(=O)N2CCOCC2)cc1)c1cc(N2CCOCC2)ccc1[N+](=O)[O-]
4 | 219 to 220 | Cc1cn(C)c2c1N(C(=O)CN(C)C)c1ccccc1NC2=O
5 | 218 to 222 | O=C(O)c1ccc(N2CCOCC2)c(NC(=O)C(CS)Cc2ccccc2)c1 (stereo not drawn)
6 | 127 to 128 | COC(=O)CCC(=O)c1cc(NC(C)=O)ccc1OCC(O)CNC(C)(C)C (stereo not drawn)
7 | 75 to 76 | COc1ccc(C=CCC#N)cc1
8 | 127 | COc1cc(Nc2nccc(Nc3ccc4c(ccn4S(=O)(=O)c4ccccc4)c3)n2)cc(OC)c1OC
9 | 263 to 265 | O=C(NCc1ccnc(Cl)c1)c1[nH]c2ccc(Cl)cc2c1S(=O)(=O)c1ccccc1
10 | 162 | CC(=O)c1cccc2ccc(CS(=O)(=O)N3CCOCC3)cc12
11 | 79 to 86 | C[Si](C)(Cn1cncn1)c1ccc(-c2ccccc2)cc1
12 | 193 to 195 | Fc1ccc2ncn3ncnc3c2c1
13 | 225 | CCOC(=O)C1=CC(C(=O)c2cc(Br)ccc2O)=CN2CCc3c([nH]c4ccc(OC)cc34)C12C(=O)OCC (stereo not drawn)
14 | 164 to 165 | O=C(Cn1ccnc1[N+](=O)[O-])NCCO
15 | 248 to 251 | CN(Cc1ccc(NC(=O)C2=Cc3cc(-c4ccc5c(c4)OCCO5)ccc3S(=O)(=O)CC2)cc1)C1CCOCC1
16 | 282 to 283 | Cc1ccc(-c2ccc3c(c2)C=C(C(=O)Nc2ccc(C4=NCCN4)cc2)CCO3)cc1
17 | 70 to 71 | CC(NC(=O)[C@@H](N)C(C)C)c1cc2ccccc2s1 (stereo partly drawn)
18 | 138 to 143 | CCCCCCCN1CCN(C(=O)C2CCC(c3cccnc3)N2)CC1 (stereo not drawn)
19 | 300 | COc1ccc(N2CCN(c3ccc(NC(=O)NN)cc3)CC2)cc1
20 | 183 to 187 | CC(Nc1cc(Br)ccc1[N+](=O)[O-])C(=O)O (stereo not drawn)
21 | 52 to 53 | BrCc1ccc(CCc2ccccc2)cc1
22 | 266 to 272 | CCC(c1oc2ccc(F)cc2c(=O)c1-c1ccccc1)n1cnc2c(N)ncnc21 (stereo not drawn)
23 | 210 to 212 | O=C(O)c1cc(-n2c(-c3ccccc3)cc3ccccc32)ccc1O
24 | 192 to 194 | N=C(NS(=O)(=O)C=Cc1ccccc1)c1ccccc1

Row | melting point [°C] | SMILES
25 | 175 | O=c1n(-c2ccccc2)c(=O)n(SC(Cl)(Cl)Cl)n1SC(Cl)(Cl)Cl
26 | 148 to 150 | COc1ccc(-n2nnc(-c3ccc(Cl)cc3F)c2N)cc1
27 | 98 to 100 | c1ccc(CSc2nnn[nH]2)cc1
28 | 116 | CC(C)(C)N1C(=O)CN(c2ccccc2)C1=O
29 | 159 to 160 | COc1nc(C)cnc1NS(=O)(=O)c1cccnc1-c1ccc(CC(C)(C)C)cc1
30 | 234 | O=C(Nc1ccc(OCCNCC2CC2)cc1)c1c[nH]c2c1C(=O)CCC2
31 | 290 | N#CC(=Cc1ccc(O)c(O)c1)C(=O)Nc1ccc(Cl)cc1
32 | 128 to 130 | O=C(CSc1ccc(C(F)(F)F)cc1C(=O)O)c1ccccc1
33 | 104 to 106 | N#CCc1ccc(C(=O)c2ccc(Cl)cc2)n1Cc1ccccc1
34 | 58 to 68 | Cc1cc(-c2cccc(-c3ccc(C4(O)C5CCC4CN(Cc4ccccc4)C5)cc3)n2)c(C)[nH]1 (stereo not drawn)
35 | 118 to 120 | CCOC(=O)C1=C(C)NC(c2cscn2)=NC1c1ccc(F)cc1 (stereo not drawn)
36 | 65 to 67 | COc1ccc(C=NO)cc1OCCCCCc1ccccc1
37 | 289 | FC(F)(F)c1cc(-c2ccc(Cl)c(Cl)c2)nc2c(-c3nc(Nc4ccccn4)no3)cnn12
38 | 120 to 122 | CCOC(=O)NCC(CC)C(NC(=O)OCC)NC(=O)OCC (stereo not drawn)
39 | 180 to 182 | COc1ccc(C)c(Nc2c(C#N)cnc3cc(Cl)c([N+](=O)[O-])cc23)c1
40 | 184 to 185 | CCCCN(CCCC)c1ccc(C=Cc2ccc(C=CC3=C(C#N)C(=C(C#N)C#N)OC3(C)C(F)(F)F)s2)c(OCc2ccccc2)c1 (stereo not drawn)
41 | 257 to 259 | O=C(O)Cc1c(C(=O)O)c2cc(Oc3ccc(C(F)(F)F)cc3)ccc2n1-c1ccc(N2CCOCC2)cc1
42 | 225 to 226 | COc1ccc2c(c1)sc1nc(Nc3ccccc3)nc(=N)n12
43 | 83 to 85 | COC(=O)Cc1ccc2c(c1)C(C)(C)CCC2(C)C
44 | 77 to 78 | CC(C)(C)CC(C)(C)c1ccc(Oc2cc3nc(C(C)(C)C)oc3cc2[N+](=O)[O-])cc1
45 | 75 to 83 | CCCCCCCSC[C@H](N[C@@H](C)C(=O)N1CCC[C@H]1C(=O)O)C(=O)O
46 | 160 to 162 | COc1ccccc1OCC1(COc2ccccc2OC)NC(C(=O)O)CS1 (stereo not drawn)
47 | 193 to 194 | CC(C)(C)OC(=O)/C=C/c1cc2ncc(C#N)c(Cl)c2s1

The remaining lines, values behind:

Row | SMILES | melting point [°C]
48 | COc1cccc(C(=O)c2sc3cc(OC)ccc3c2-c2ccccc2)c1 | 101 to 103
49 | CC(C)C1(C)N=C2c3ncc(C4OCCO4)cc3C(=O)N2C1=O (stereo not drawn) | 102 to 104
50 | O=C(O)Cn1c(=O)[nH][nH]c1=O | 220 to 223
51 | O=CC12CC(c3ccccc31)c1ccc(Cl)cc12 (stereo not drawn) | 91 to 92
52 | N#Cc1ncncc1-c1ccc(CBr)cc1 | 114 to 116
53 | Cc1cccc(C(=O)P2(=O)Oc3ccccc3-c3ccccc32)c1 (stereo not drawn) | 108 to 111
54 | CCCCSc1nnc(-c2ccc(N)cc2)s1 | 91
55 | CC(=O)Nc1ccn(C2OC(COC(C)=O)C(Br)C2OC(C)=O)c(=O)n1 (stereo not drawn) | 179 to 180
56 | COC1CSC2=C(SC1)C(OC(=O)N1CCN(C)CC1)N(c1ccc3ccc(C)nc3n1)C2=O (stereo not drawn) | 220
57 | CC(C)(C)c1ccc(CCOc2ccnc3c(F)cccc23)cc1 | 81 to 82
58 | O=C(CCc1ccc(NC2=NCCN2)cc1)c1ccc(F)cc1 | 190 to 191
59 | COCn1ccnc1C(O)(c1ccccc1)c1ccc(F)cc1 (stereo not drawn) | 150
60 | CCOC(=O)CCc1cccc2c1NC(=O)CC2 | 102 to 103
61 | Nc1c(Cl)cc(S(=O)(=O)C(F)(F)F)cc1[N+](=O)[O-] | 138 to 139
62 | COC(=O)C1Cc2c([nH]c3ccccc23)C(c2ccccc2Cl)N1 (stereo not drawn) | 154
63 | CCOC(=O)/C=C/c1ccc(N2CCC(=O)CC2)cc1 | 96 to 98
64 | C=CCC1(C(C)CC(=O)OCC)C(=O)NC(=O)NC1=O (stereo not drawn) | 114
65 | CCCc1[nH]c2cc(C(N)=O)ccc2c1C(=O)C1CCCCC1 | 245 to 247
66 | CC(C)(O)C1COCc2nc3c(N)nc4ccccc4c3n21 (stereo not drawn) | 216 to 217

Row | SMILES | melting point [°C]
67 | CC(C)(C)OC(=O)C1C(C#CC(=O)O)C1(C)C (stereo not drawn) | 144
68 | O=C(O)CCCc1cc2nc(Cl)ccc2n1S(=O)(=O)c1ccc(-c2ccncc2)cc1 | 174
69 | CNS(=O)(=O)c1cccc(OC)c1C#N | 121 to 128
70 | COC(=O)C=Cc1ccccc1C#N | 92 to 93
71 | CCCCCCCCCC(=O)NCCCCCC(=O)OO | 63 to 67
72 | CCOC(=O)c1cc2ccc(C)c(Cl)c2[nH]1 | 73 to 75
73 | COC(=O)c1cncc(NC(=O)C(C)CSC(C)=O)c1 (stereo not drawn) | 88 to 90
74 | NC(=O)COc1cc(C(F)(F)F)cc(C(F)(F)F)c1 | 139 to 141
75 | CCOC(=O)CCC(=O)Nc1cccc(/C=C/c2nc(C3CCC3)cs2)c1 | 98 to 100
76 | CSC(=N[N+](=O)[O-])NCc1cnc(Cl)s1 | 162 to 165
77 | COc1cc(OC)c(-c2cc3ccccc3n2C)cc1C=CC(=O)c1ccc(S(=O)(=O)Nc2cc(C)on2)cc1 | 220
78 | O=C(O)CCNC(=O)CCNC(=O)N1CCC2(CCNCC2)CC1 | 105 to 110
79 | NC(=O)NCc1ccc2c(c1)OCO2 | 183 to 184
80 | COc1cccc2c(C(F)(F)F)cc(N3CCNCC3)nc12 | 130
81 | CC(=O)ONC(=N)c1ccc(NC(=O)CCCC(=O)Nc2ccc(C(=N)NOC(C)=O)cc2)cc1 | 225 to 228
82 | O=C(O)c1cccnc1N1CCN(CCOC2c3ccccc3CSc3ccccc32)CC1 (stereo not drawn) | 217 to 218
83 | Cc1cc2oc(-c3ccccn3)nc2cc1N=C=S | 192 to 194
84 | O=C1Nc2cc(Cl)ccc2Oc2cscc21 | 263 to 265
85 | CCCc1nc2c(N)nc3cc(OCCN4CCCC4)ccc3c2s1 | 124 to 127

Row | SMILES | melting point [°C]
86 | CCc1nc2c(N)nc3cc(OCCNC(C)=O)ccc3c2n1CC1CCOCC1 | 165 to 167
87 | COC(=O)Nc1ccc(Cl)c(F)c1I | 137 to 139
88 | O=C1c2ccccc2C(=O)N1Cn1nnn(-c2ccccc2)c1=S | 130 to 134
89 | Nc1c(Br)cc(Br)c(O)c1Br | 119
90 | COc1ccc(-c2[nH]cnc2-c2cc(OC)c(N)c(OC)c2)cc1F | 101 to 103
91 | O=C(Nc1cccc(NCc2ccccc2)n1)c1cc(-c2ccc(F)cc2)n(C2CCCCO2)n1 (stereo not drawn) | 139 to 140
92 | NS(=O)(=O)c1ccc(-n2nc(CCCNC(=O)Nc3cccc(C(F)(F)F)c3)cc2-c2ccccc2)cc1 | 176
93 | CCc1cc(Cc2cc(C)c(N)c(CC)c2)cc(C)c1N | 85 to 86
94 | NNC(=O)c1ccc(C(=O)O)cc1 | 235 to 236
95 | COC(=S)c1ccc(C)c(C2=NOCC2)c1C | 109 to 111
96 | CN1C(=O)C(NC(=O)CCCCc2ccccc2)N=C(N2CCCCCC2)c2ccccc21 (stereo not drawn) | 140 to 141
97 | CN1CCc2c(Cl)ccc(CO)c2CC1 | 136 to 140
98 | COc1ccc2nc3ccc(OC)cc3c(C(=O)O)c2c1 | 192 to 193
99 | CCn1c(=O)c2c(nc(/C=C/c3cc4c(c(OC(C)=O)c3)OCO4)n2C)n(CC)c1=O | > 270
100 | CCN1c2ncccc2C(=NC#N)Nc2c(C)cc(C)nc21 | 230 to 233
101 | COc1nccnc1OCC(O)CN1CCC(N2CCc3ccccc3C2=O)CC1 (stereo not drawn) | 167 to 169
102 | CCOC(=O)C(C(=O)CCCC(C)C)C1c2ccccc2C(=O)N1c1ccc2ccc(Cl)nc2n1 (stereo not drawn) | 135
103 | O=C(O)c1cc(-n2c3c(c(-c4ccccc4)c2-c2ccccc2)CCCC3)ccc1O | 246 to 247

Reference: a melting point compilation (Tetko et al.; mined from patent text by program, amines drawn as free bases though some values may be those of a salt)
